Columns and labels:
[1] = molecular target: T1, human orexin-2 receptor (Homo sapiens, UniProt O43614); assay: Intracellular calcium measurements (FLIPR), orexin receptor antagonistic activity, OX2; type: cell-based; conditions: CHO cells expressing the human orexin-2 receptor, agonist 10 nM human orexin-A
T1 construct: expressed in transfected cells; host or cells: CHO cells (G418 selection)
T1 sequence (O43614 1-444): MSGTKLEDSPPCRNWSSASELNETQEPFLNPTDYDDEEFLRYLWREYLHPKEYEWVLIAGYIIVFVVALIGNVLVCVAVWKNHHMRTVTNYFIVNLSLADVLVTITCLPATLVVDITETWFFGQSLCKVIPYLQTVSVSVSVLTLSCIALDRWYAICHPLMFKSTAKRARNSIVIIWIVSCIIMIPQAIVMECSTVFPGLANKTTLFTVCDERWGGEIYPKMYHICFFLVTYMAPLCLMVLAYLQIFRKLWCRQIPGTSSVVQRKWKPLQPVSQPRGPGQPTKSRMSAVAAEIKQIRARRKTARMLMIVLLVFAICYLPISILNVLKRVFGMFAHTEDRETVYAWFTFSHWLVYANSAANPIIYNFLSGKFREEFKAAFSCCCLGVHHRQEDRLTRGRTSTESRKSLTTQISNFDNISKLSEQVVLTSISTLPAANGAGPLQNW
Protocol: (§1) The Orexin receptor antagonistic activity of the compounds of formula (I) was determined in accordance with the following experimental method.
(§2) Intracellular Calcium Measurements
(§3) Chinese hamster ovary (CHO) cells expressing the human orexin-1 receptor and the human orexin-2 receptor, respectively, were grown in culture medium (Ham F-12 with L-Glutamine) containing 300 μg/ml G418, 100 U/ml penicillin, 100 μg/ml streptomycin and 10% inactivated foetal calf serum (FCS).
(§4) The cells were seeded at 80,000 cells/well into 96-well black clear bottom sterile plates (Costar) which had been precoated with 1% gelatine in Hanks' Balanced Salt Solution (HBSS). All reagents were from Gibco BRL.
(§5) The seeded plates were incubated overnight at 37° C. in 5% CO2.
(§6) Human orexin-A as an agonist was prepared as 1 mM stock solution in methanol:water (1:1), diluted in HBSS containing 0.1% bovine serum albumin (BSA) and 2 mM HEPES for use in the assay at a final concentration of 10 nM.
(§7) Antagonists were prepared as 10 mM stock solution in DMSO, then diluted in 96-well plates, first in DMSO, then in HBSS containing 0.1% bovine serum albumin (BSA) and 2 mM HEPES.
(§8) On the day of the assay, 100 μl of loading medium (HBSS containing 1% FCS, 2 mM HEPES, 5 mM probenecid (Sigma) and 3 μM of the fluorescent calcium indicator fluo-3 AM (1 mM stock solution in DMSO with 10% pluronic acid) (Molecular Probes) was added to each well.
(§9) The 96-well plates were incubated for 60 min at 37° C. in 5% CO2. The loading solution was then aspirated and cells were washed 3 times with 200 μl HBSS containing 2.5 mM probenecid, 0.1% BSA, 2 mM HEPES. 100 μl of that same buffer was left in each well. Within the Fluorescent Imaging Plate Reader (FLIPR, Molecular Devices), antagonists were added to the plate in a volume of 50 μl, incubated for 20 min and finally 100 μl of agonist was added. Fluorescence was measured for each well at 1 second intervals, and the height of each fluorescence peak was compared to the height of the fluorescence peak induced by 10 nM orexin-A with buffer in place of antagonist.

[2] = molecular target: T2, human orexin-1 receptor (Homo sapiens, UniProt O43613); assay: Intracellular calcium measurements (FLIPR), orexin receptor antagonistic activity, OX1; type: cell-based; conditions: CHO cells expressing the human orexin-1 receptor, agonist 10 nM human orexin-A
T2 construct: expressed in transfected cells; host or cells: CHO cells (G418 selection)
T2 sequence (O43613 1-425): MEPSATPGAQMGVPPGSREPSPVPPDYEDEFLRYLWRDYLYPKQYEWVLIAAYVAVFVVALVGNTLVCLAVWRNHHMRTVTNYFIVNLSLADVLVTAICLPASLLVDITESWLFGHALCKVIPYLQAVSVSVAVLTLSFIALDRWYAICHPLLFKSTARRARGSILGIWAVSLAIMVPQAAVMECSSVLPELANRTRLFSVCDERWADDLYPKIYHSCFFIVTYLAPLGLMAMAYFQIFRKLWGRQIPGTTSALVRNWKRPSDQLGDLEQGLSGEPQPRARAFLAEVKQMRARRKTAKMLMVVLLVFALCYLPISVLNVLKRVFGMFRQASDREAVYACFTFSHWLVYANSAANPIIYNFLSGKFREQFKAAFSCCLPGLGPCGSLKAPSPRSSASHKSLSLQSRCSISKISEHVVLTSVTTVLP
Protocol: as §1, §2, §3, §4, §5, §6, §7, §8, §9

`CCN(Cc1ccccc1)C(=O)CN(c1ccc(OC)nc1)S(=O)(=O)c1ncccc1C` [Example 207, N-Benzyl-N-ethyl-2-[(6-methoxy-pyridin-3-yl)-(3-methyl-pyridine-2-sulfonyl)-amino]-acetamide] gave an IC50 [1] of 4 nM and an IC50 [2] of 5370 nM.

For `CCN(Cc1cccc(C)n1)C(=O)CN(c1ccc(C)cc1)S(=O)(=O)c1ccc(C(C)(C)C)cc1` [Example 71, 2-[(4-tert-Butyl-benzenesulfonyl)-p-tolyl-amino]-N-ethyl-N-(6-methyl-pyridin-2-ylmethyl)-acetamide], the IC50 [1] was 5 nM and the IC50 [2] was 417 nM.

`CCN(Cc1ccccc1)C(=O)CN(c1ccc(OC)nc1)S(=O)(=O)c1ccccc1C` [Example 46, N-Benzyl-N-ethyl-2-[(6-methoxy-pyridin-3-yl)-(toluene-2-sulfonyl)-amino]-acetamide] was tested, and the IC50 [1] was 5 nM and the IC50 [2] was 898 nM.

For `CCN(Cc1ccccc1)C(=O)CN(c1ccccc1OC)S(=O)(=O)c1ccccc1C` [Example 47, N-Benzyl-N-ethyl-2-[(2-methoxy-phenyl)-(toluene-2-sulfonyl)-amino]-acetamide], the IC50 [1] was 4 nM and the IC50 [2] was 354 nM.

`CCN(CCC#N)C(=O)CN(c1ccc(C)cc1)S(=O)(=O)c1ccc(C(C)(C)C)cc1` [Example 63, 2-[(4-tert-Butyl-benzenesulfonyl)-p-tolyl-amino]-N-(2-cyano-ethyl)-N-ethyl-acetamide] was tested, and the IC50 [1] was 3 nM and the IC50 [2] was > 10000 nM.

With `CCN(Cc1ccccn1)C(=O)CN(c1ccc(OC)nc1)S(=O)(=O)c1ccccc1C` [Example 163, N-Ethyl-2-[(6-methoxy-pyridin-3-yl)-(toluene-2-sulfonyl)-amino]-N-pyridin-2-ylmethyl-acetamide] the IC50 [1] was 4 nM and the IC50 [2] was > 10000 nM.

Work on `CCN(Cc1ccccc1)C(=O)CN(c1ccccc1OC)S(=O)(=O)c1ncccc1C` [Example 185, N-Benzyl-N-ethyl-2-[(2-methoxy-phenyl)-(3-methyl-pyridine-2-sulfonyl)-amino]-acetamide] yielded an IC50 [1] of 4 nM and an IC50 [2] of 4270 nM.

Compound `CCN(Cc1cccc(C)n1)C(=O)CN(c1cccc(N(C)C)c1)S(=O)(=O)c1ccc(C(C)(C)C)cc1` [Example 87, 2-[(4-tert-Butyl-benzenesulfonyl)-(3-dimethylamino-phenyl)-amino]-N-ethyl-N-(6-methyl-pyridin-2-ylmethyl)-acetamide] has an IC50 [1] of 8 nM and an IC50 [2] of 56 nM.

`CN(C)c1cccc(N(CC(=O)N(CCO)Cc2ccccn2)S(=O)(=O)c2ccc(C(C)(C)C)cc2)c1` [Example 111, 2-[(4-tert-Butyl-benzenesulfonyl)-(3-dimethylamino-phenyl)-amino]-N-(2-hydroxy-ethyl)-N-pyridin-2-ylmethyl-acetamide] was tested, and the IC50 [1] was 5 nM and the IC50 [2] was 331 nM.

`CCN(Cc1ccccn1)C(=O)CN(c1ccc(C)cc1)S(=O)(=O)c1ccc(C(C)(C)C)cc1` [Example 66, 2-[(4-tert-Butyl-benzenesulfonyl)-p-tolyl-amino]-N-ethyl-N-pyridin-2-ylmethyl-acetamide] was tested, and the IC50 [1] was 4 nM and the IC50 [2] was 1030 nM.

Work on `CCN(Cc1cccc(O)c1)C(=O)CN(c1ccccc1OC)S(=O)(=O)c1ccccc1C` [Example 158, N-Ethyl-N-(3-hydroxy-benzyl)-2-[(2-methoxy-phenyl)-(toluene-2-sulfonyl)-amino]-acetamide] yielded an IC50 [1] of 5 nM and an IC50 [2] of 840 nM.

`CCN(Cc1cccc(C)n1)C(=O)CN(c1ccc(OC)nc1)S(=O)(=O)c1ccccc1C` [Example 160, N-Ethyl-2-[(6-methoxy-pyridin-3-yl)-(toluene-2-sulfonyl)-amino]-N-(6-methyl-pyridin-2-ylmethyl)-acetamide] showed an IC50 [1] of 2 nM and an IC50 [2] of 8640 nM.

Reference: patent US7435815B2, “Sulfonylamino-acetic acid derivatives” (Actelion Pharmaceuticals Ltd., priority 2002, dated 2008)
